Structures can show the parent of a compound that is named as a salt.
Columns and labels:
[1] = target: T1, human serotonin transporter (hSERT) (Homo sapiens, UniProt P31645); assay: SPA radioligand binding (3H-citalopram) at the human serotonin transporter; settings: hSERT membranes from HEK-293 cells, Cheng-Prusoff, geometric mean, read-out: SRI Ki
T1 construct: expressed in transfected cells; host or cells: HEK-293
Description: (§1) The compounds were tested for biological activity by their ability to inhibit binding of selective radioligands at the human serotonin and noradrenaline transporters (SERT and NET, respectively), using scintillation proximity assay (SPA) technology. The SPA binding was performed using cellular membrane preparations prepared from cell lines expressing human cDNA encoding either SERT or NET (hSERT, hNET), using the radioligands ^3H-citalopram and ^3H-nisoxetine.
(§2) Human embryonic kidney cells (HEK-293) expressing each transporter were maintained as a continuous culture, using standard cell culture techniques, in 50 mL of growth medium (see Media and Buffers for composition) in 225 cm^2 flasks, at 37° C. in a humidified atmosphere with 5% CO2 present. Cells were passaged from a 90% confluent monolayer at a ratio of 1:3-1:4.
(§3) For cell harvesting, the growth medium was removed from the monolayer and the cells were incubated with cell dissociation solution (Sigma) until showing signs of dissociation. The cells were subsequently knocked from the base of the flask and pelleted by centrifugation for storage (frozen at −80° C.) prior to further use.
(§4) Cell pellets were thawed on ice and resuspended in 3 mL of membrane preparation buffer (see Media and Buffers for composition) per 1 mL of packed cell volume, using a vortex mixer to disperse the cell pellet.
(§5) After incubation on ice for 10 minutes, the suspension was homogenised for four individual 10 second intervals using a hand-held homogeniser. The homogenate was then centrifuged at 1075×g for 20 minutes at 4° C.
(§6) The supernatants were then collected and retained. Initial cell & nuclei pellets (P1) were subsequently rehomogenised and centrifuged using the conditions cited above, and the supernatants collected and pooled with those retained from the first spin.
(§7) The pooled supernatants were centrifuged at 35000×g for 30 minutes at 4° C., and the supernatants discarded. The pellets (P2) were then resuspended in 1 mL of membrane preparation buffer per 1 mL of the original packed cell volume. Protein concentrations were then measured and the membrane suspension was finally frozen in aliquots of set volume and stored at −80° C. prior to use in assays.
(§8) The specific SPA bead type differed for each transporter, wheat germ agglutinin-coated yttrium silicate (YSi WGA) SPA beads were used for hSERT and WGA-coated polyvinyltoluene (PVT WGA) SPA beads for hNET assays. For each batch of membrane used, optimal concentrations of bead and membrane were determined
(§9) Tritiated radioligands specific to each transporter (^3H-citalopram for hSERT and ^3H-nisoxetine for hNET) were used. The assay free radioligand concentration was expressed as a percentage of the total free radioligand concentration to give an estimate of the radioligand depletion. The radioligand depletion in assays for both transporters was less than 30% to ensure that there was sufficient radioligand available for binding. The ligand depletion value was also used for selecting the optimal assay conditions when using new batches of membranes.
(§10) The affinity of the specific radioligand for the respective transporter was determined for each membrane batch at the selected protein and bead concentrations. This was achieved by the determination of the KD, the concentration of free radioligand at which 50% of the transporter binding sites were occupied. The mean KD for a radioligand at a batch of membranes was determined from data from a minimum of three separate assays. The mean KD was subsequently used for all assays using the membrane batch profiled to enable determination of Ki values of compounds studied using the method determined by Cheng and Prussoff (Cheng Y C and Prusoff W H. Relationship between the inhibition constant (Ki) and the concentration of inhibitor which causes 50% inhibition of an enzymatic reaction. Biochem Pharmacol 1973; 22:2099-[…].) […]

[2] = target: T2, human noradrenaline transporter (hNET) (Homo sapiens, UniProt P23975); assay: SPA radioligand binding (3H-nisoxetine) at the human noradrenaline transporter; settings: hNET membranes from HEK-293 cells, Cheng-Prusoff, geometric mean, read-out: NRI Ki
T2 construct: expressed in transfected cells; host or cells: HEK-293
T2 sequence (P23975 whole entry): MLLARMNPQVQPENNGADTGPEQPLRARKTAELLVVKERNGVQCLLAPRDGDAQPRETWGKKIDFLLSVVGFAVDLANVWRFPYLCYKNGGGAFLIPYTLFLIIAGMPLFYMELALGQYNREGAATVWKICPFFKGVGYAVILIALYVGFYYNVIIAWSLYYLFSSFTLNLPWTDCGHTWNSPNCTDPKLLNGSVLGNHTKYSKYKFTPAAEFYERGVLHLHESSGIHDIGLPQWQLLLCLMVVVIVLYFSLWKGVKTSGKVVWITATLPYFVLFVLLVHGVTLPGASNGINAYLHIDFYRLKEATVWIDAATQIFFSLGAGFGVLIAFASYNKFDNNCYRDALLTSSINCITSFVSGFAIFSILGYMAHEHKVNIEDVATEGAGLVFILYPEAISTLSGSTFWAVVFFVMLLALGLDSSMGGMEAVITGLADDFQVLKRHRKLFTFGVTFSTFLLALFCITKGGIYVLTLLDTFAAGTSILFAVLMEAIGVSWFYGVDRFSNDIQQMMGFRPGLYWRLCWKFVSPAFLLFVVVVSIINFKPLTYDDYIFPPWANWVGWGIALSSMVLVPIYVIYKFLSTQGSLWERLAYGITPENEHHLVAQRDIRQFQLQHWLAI
Description: as §1, §2, §3, §4, §5, §6, §7, §8, §9, §10

T1 sequence (P31645 whole entry): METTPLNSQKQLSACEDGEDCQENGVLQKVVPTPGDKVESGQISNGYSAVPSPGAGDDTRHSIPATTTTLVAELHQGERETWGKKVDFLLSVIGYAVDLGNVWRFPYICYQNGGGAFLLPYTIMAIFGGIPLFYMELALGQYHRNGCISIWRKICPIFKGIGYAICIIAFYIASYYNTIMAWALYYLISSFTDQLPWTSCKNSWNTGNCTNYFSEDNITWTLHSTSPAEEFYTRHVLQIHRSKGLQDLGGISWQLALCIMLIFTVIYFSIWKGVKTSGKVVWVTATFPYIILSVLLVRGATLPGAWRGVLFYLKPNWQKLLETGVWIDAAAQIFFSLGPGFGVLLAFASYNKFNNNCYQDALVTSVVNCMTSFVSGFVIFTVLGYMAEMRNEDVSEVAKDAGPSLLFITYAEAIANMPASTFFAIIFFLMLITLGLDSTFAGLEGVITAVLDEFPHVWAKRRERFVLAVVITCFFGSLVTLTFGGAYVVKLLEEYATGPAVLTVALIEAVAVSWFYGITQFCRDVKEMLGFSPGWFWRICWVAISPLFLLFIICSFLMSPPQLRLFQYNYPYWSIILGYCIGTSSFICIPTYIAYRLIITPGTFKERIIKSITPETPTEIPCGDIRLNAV

| Ki [1] [nM] | Ki [2] [nM] | SMILES |
| --- | --- | --- |
| 30 | 28 | O=C(c1ccccc1C(F)(F)F)N(C1CC2CCC1C2)[C@H]1CCNC1 (stereo partly drawn) [Example 3, N-Bicyclo[2.2.1]hept-2-yl-2-(trifluoromethyl)N-[(3S)pyrrolidin-3-yl]benzamide] |
| 21 | 58 | O=C(c1cccc(Cl)c1Cl)N(CCC(F)(F)F)[C@H]1CCNC1 [Example 5, 2,3-Dichloro-N-[(3S)-pyrrolidin-3-yl]-N-(3,3,3-trifluoropropyl)benzamide hydrochloride] |
| 1590 | 10 | CC(F)(F)CN(C(=O)c1ccccc1Oc1ccccc1)[C@H]1CCNC1 [Example 7, N-(2,2-Difluoropropyl)-2-phenoxy-N-[(3S)-pyrrolidin-3-yl]benzamide hydrochloride] |

Further lines, the molecule ahead of its results:

| SMILES | Ki [1] [nM] | Ki [2] [nM] |
| --- | --- | --- |
| O=C(c1cccc(Cl)c1Cl)N([C@H]1C[C@H]2CC[C@H]2C1)[C@H]1CCNC1 [Example 1, N-(1R,3r,5 S)-Bicyclo[3.2.0]hept-3-yl-2,3-dichloro-N-[(3S)-pyrrolidin-3-yl]benzamide] | 9 | 12 |
| O=C(c1ccccc1Cl)N(C1CC2CCC1C2)[C@H]1CCNC1 (stereo partly drawn) [Example 4, N-Bicyclo[2.2.1]hept-2-yl-2-chloro-N-[(3S)-pyrrolidin-3-yl]benzamide] | 6 | 25 |
| O=C(c1cccc(Cl)c1Cl)N(C(C1CC1)C1CC1)[C@H]1CCNC1 [Example 10, 2,3-dichloro-N-(dicyclopropylmethyl)-N-[(3S)-pyrrolidin-3-yl]benzamide hydrochloride] | 11 | 72 |

From patent US20090239929A1, “N-Pyrrolidin-3-YL-Amide Derivatives As Serotonin and Noradrenalin Re-Uptake Inhibitors” (priority 2004, published 2009)
